Seven compounds from paper PMC8891364, “Synthesis, and docking studies of novel heterocycles incorporating the indazolylthiazole moiety as antimicrobial and anticancer agents” (Scientific Reports, 2022) can be followed below.

In brackets after ≈: the same amount, converted by molar mass.

In series [1] the test system is Candida albicans ATCC 10231. Kind of series: Antimicrobial microtiter-plate MIC assay. Conditions: 24 h, 37 °C; for MIC: Candida albicans, ATCC10231. It is filed as cell-based. The method, then: (§1) The antimicrobial activity of the newly synthesized compounds (2–9) was evaluated against three model pathogenic microorganisms as follows: Streptococcus mutans ATCC 25175 (Gram-positive bacterium); Pseudomonas aeruginosa ATCC 27853 (Gram-negative bacterium); and Candida albicans ATCC 10231 (fungi-like unicellular organism). After cultivating the three tested pathogens overnight in LB broth, 100 µL of each tested organism (10^6 CFU/mL) was added separately to 100 µL of the serially diluted test compounds (5–80 µg) in a 96-well tissue culture plate and incubated at 37 °C for 24 h. Eventually, microbial growth was measured at 600 nm, and the results are presented in the form of MIC (Table 4). Two antibacterial reference drugs, ampicillin and ciprofloxacin, and one antifungal drug, clotrimazole, were incorporated into the experiments.

The test system of another series is Candida albicans. Kind of series: Microbial-biofilm inhibition, tissue-culture plate technique (TCP). It is filed as cell-based. Conditions: Candida albicans, 24 h, relative to untreated. The method, then:
(§2) The activity of the newly synthesized compounds against microbial biofilm formation was estimated through the tissue-culture plate technique (TCP) as follows: the three above-mentioned pathogens, Streptococcus mutans, Pseudomonas aeruginosa, and Candida albicans were cultivated overnight in LB broth at 37 °C. Afterward, 200 µL of each diluted organism (10^6 CFU/mL) was inoculated separately (in triplicate) into 96-well tissue culture plates and incubated overnight at 37 °C. The free planktonic cells were removed, after the incubation period, by flipping the plate and washing each well three times with phosphate-buffered-saline (PBS), pH 7.1. To each well, 175 µL of fresh LB broth was added along with 25 µL of the tested compound (25 µg/mL final concentrations). The plates were reincubated at 37 °C for another 24 h, washed with PBS buffer pH 7.1 three times, and dried for 5 min at 50 °C. The formed biofilm was stained with crystal violet solution (0.1% w/v) for 5 min. The excess stain was decanted, and the stained biofilm was solubilized with 200 µL of glacial acetic acid (30% v/v), where the developed blue color was measured at 590 nm. The results are expressed as relative inhibition (%) compared to untreated groups (control). Controls were prepared by culturing the three pathogens on LB medium without any tested compounds.

For a further series, the system named is Caco-2 cells. Kind of series: MTT antitumor assay, colon carcinoma cells. It is filed as cell-based. To be noted: for IC50: Homo sapiens, Caco-2, 48 h; for SI Caco-2: ratio of IC50 of normal cells (HFB-4) versus IC50 of tumor cells. The method, then: (§3) The human melanocytes (HFB-4) cells, hepatoma (HepG-2) cells, and colon carcinoma (Caco-2) cells were obtained from American Type Culture Collection (ATCC, USA). The cytotoxicity of the newly synthesized compounds (at various concentrations) was determined using the 3-[4, 5-dimethylthiazol]-2, 5-diphenyltetrazolium bromide method (MTT assay)[59] against HFB-4 cells (normal human melanocytes), HepG-2 cells (hepatoma), and Caco-2 cells (colon carcinoma). Normal and cancer cells (1.0 × 10^4) were cultured in sterile 96-well microplates, and incubated for 24 h in DMEM (Lonza, USA) supplemented with 10% fetal bovine serum (Gibco, USA) for HFB-4 and Caco-2 cells or in an RPMI-1640 medium (Lonza, USA) supplemented with 10% FBS for HepG-2 cells. After 24 h of incubation, different doses of the tested synthesized compounds ([…]) were added in triplicate to all cells and incubated for another 48 h in 5% CO2. After washing the cells 3 times with fresh media, to remove dead cells and debris, a solution of MTT (Sigma -Aldrich, 0.5 mg/mL) was added to each well and further incubated for 2–5 h at 37 °C. Afterward, the MTT solution was decanted and 200 µL of DMSO was added. The optical density was measured at 570 nm using a microplate reader (BMG LabTech, Germany), where the cells’ relative viability (%) was estimated using the following equation: viability of cells (%) = [A1 − A0/AU − A0] × 100, where A1 is the absorbance of the test compound, A0 is the absorbance of the blank, and AU is the absorbance of untreated cells (control).
(§4) The antitumor activity of the synthesized compound was determined by calculating the IC50 value (half maximal inhibitory concentration) using Graph Pad Prism 6.0 software. The value of IC50 indicates the derivative concentration that causes 50% cell death, whereas the value of the selectivity index (SI), indicating the ratio of the IC50 value of normal cells versus the IC50 value of tumor cells, was also included as reported by[60],[61].

The subject of the next series is HepG-2 cells. Kind of series: MTT antitumor assay, hepatoma cells. The series is classed as cell-based, human. Conditions: for IC50: Homo sapiens, HepG2, 48 h; for SI HepG-2: ratio of IC50 of normal cells (HFB-4) versus IC50 of tumor cells. The method, then:
as §3, §4

In another series the test system is HFB-4 cells. Kind of series: MTT cytotoxicity assay, normal human melanocytes. It is filed as cell-based. Conditions: 48 h; for IC50: Melanocyte. The method, then:
as §3, §4
In general terms: Tetrazolium dyes change colour on reduction, which living cells bring about.

The subject of series [2] is Streptococcus mutans ATCC 25175. Kind of series: Antimicrobial microtiter-plate MIC assay. It is filed as cell-based. To be noted: for MIC: Streptococcus mutans, ATCC25175, 24 h, read-out: MIC Streptococcus mutant; for MIC Streptococcus mutant: 24 h, 37 °C. The method, then: as §1
In series [3] the test system is Pseudomonas aeruginosa ATCC 27853. Kind of series: Antimicrobial microtiter-plate MIC assay. Conditions: 24 h, 37 °C; for MIC: Pseudomonas aeruginosa, ATCC27853. It is filed as cell-based. The method, then:
as §1

A further series has as its system Pseudomonas aeruginosa. Kind of series: Microbial-biofilm inhibition, tissue-culture plate technique (TCP). It is filed as cell-based. Conditions: 25 µg/mL, 24 h. The method, then:
as §2

The compound `Clc1ccccc1C(c1ccccc1)(c1ccccc1)n1ccnc1` [Clotrimazole, clotrimazole, reference compound] returned an MIC in series [1] of 14.5 ± 1.25 µg/mL (≈ 42 µM).

Consider `CCOC(=O)C1=C2N=C(N3NC4=C(CCCC4)C3c3ccccc3)SC2C(=S)S1` (stereo not shown) [Compound 9, ethyl 2-(3-phenyl-1,3,4,5,6,7-hexahydro-2H-indazol-2-yl)-6-thioxo-6,6a-dihydrothieno [3,4-d]thiazole-4-carboxylate], for which, in the series on Candida albicans, the inhibition at 25 µg/mL is around 79%. Further, the IC50 stood at 5.95 ± 0.1 µg/mL (≈ 13.4 µM) in the series on Caco-2 cells (MTT, 48 h); 5.23 ± 0.25 µg/mL (≈ 11.8 µM) in the series with HepG-2 cells (MTT, 48 h); 65.65 ± 0.29 µg/mL (≈ 148 µM) in the series on HFB-4 cells. Moreover, the “SI Caco-2” value in the series on Caco-2 cells is 11.04 ± 0.05. Further, the “SI HepG-2” value in the series on HepG-2 cells is 12.55 ± 0.06. The MIC amounted to 48.77 ± 0.246 µg/mL (≈ 110 µM) in series [2], 61.5 ± 1.83 µg/mL (≈ 139 µM) in series [3] and 46.6 ± 1.2 µg/mL (≈ 105 µM) in series [1].

`N#Cc1c(N)sc2sc(N3NC4=C(CCCC4)C3c3ccccc3)nc12` (stereo not shown) [Compound 5, 5-amino-2-(3-phenyl-1,3,4,5,6,7-hexahydro-2H-indazol-2-yl)thieno[3,2-d]thiazole-6-carbonitrile] came in with an inhibition at 25 µg/mL in the series on Candida albicans of 68%. The “biofilm inhibition activity Pseudomonas aeruginosa (in words)” value in the series on Pseudomonas aeruginosa is given as “high biofilm inhibition activity”. For the same compound, the IC50 was 7.59 ± 0.24 µg/mL (≈ 20 µM) with Caco-2 cells (MTT, 48 h); 7.57 ± 0.36 µg/mL (≈ 19.9 µM) in the series with HepG-2 cells (MTT, 48 h); 97.7 ± 2.41 µg/mL (≈ 257 µM) with HFB-4 cells. The “SI Caco-2” value with Caco-2 cells amounted to 12.87 ± 0.32. In the series with HepG-2 cells, the “SI HepG-2” value came to 12.90 ± 0.32. The results for the minimal inhibitory concentration (MIC) in series [2], in series [3] and in series [1] were 43.52 ± 0.359 µg/mL (≈ 115 µM), 56.5 ± 2.19 µg/mL (≈ 149 µM) and 59 ± 1.28 µg/mL (≈ 156 µM), respectively.

As to `CC1(C)S[C@@H]2[C@H](NC(=O)[C@H](N)c3ccccc3)C(=O)N2[C@H]1C(=O)O` [Ampicillin, ampicillin, reference compound], in series [2], the “MIC Streptococcus mutant” value is given as 13.5 ± 0.234 µg/mL (≈ 38.6 µM) and the MIC was found to be 13.5 µg/mL (≈ 38.6 µM).

On to `NS(=O)(=O)c1ccc(Nc2csc(N3NC4=C(CCCC4)C3c3ccccc3)n2)cc1` (stereo not shown) [Compound 2], for which the “biofilm inhibition activity Pseudomonas aeruginosa (in words)” value in the series on Pseudomonas aeruginosa is “high biofilm inhibition activity”. Moreover, in the series with Pseudomonas aeruginosa (relative to untreated), the “biofilm inhibition Pseudomonas aeruginosa” value was “approximately 58.5%”. The “IC50 Caco-2” value with Caco-2 cells (MTT, 48 h) came out at 6.06 ± 1.26 µg/mL (≈ 13.4 µM). Besides, the “SI Caco-2” value in the series with Caco-2 cells was 18.28 ± 0.25. Further, the “IC50 HepG-2” value in the series with HepG-2 cells (MTT, 48 h) was 6.37 ± 0.36 µg/mL (≈ 14 µM). For the same compound, the “SI HepG-2” value in the series with HepG-2 cells is reported as 17.39 ± 0.24. Besides, in the series on HFB-4 cells, the “IC50 HFB-4” value worked out at 110.8 ± 1.54 µg/mL (≈ 244 µM). Moreover, in series [2], the “MIC Streptococcus mutant” value is 49.71 ± 0.5849 µg/mL (≈ 110 µM). In addition, the “MIC Pseudomonas aeruginosa” value in series [3] stood at 40.13 ± 2.109 µg/mL (≈ 88.5 µM). Further, the “MIC Candida albicans” value in series [1] amounted to 52.77 ± 0.7862 µg/mL (≈ 116 µM).

For the compound `N=C1CC(=O)Oc2nc(N3NC4=C(CCCC4)C3c3ccccc3)sc21` (stereo not shown) [Compound 7, 7-imino-2-(3-phenyl-1,3,4,5,6,7-hexahydro-2H-indazol-2-yl)-6,7-dihydro-5H-pyrano [2,3-d]thiazol-5-one], the inhibition at 25 µg/mL with Candida albicans was 66%. In addition, the half-maximal inhibitory concentration (IC50) was 9.2 ± 0.27 µg/mL (≈ 25.1 µM) in the series on Caco-2 cells (MTT, 48 h); 9.53 ± 0.32 µg/mL (≈ 26 µM) in the series on HepG-2 cells (MTT, 48 h); 105 ± 6.2 µg/mL (≈ 286 µM) in the series with HFB-4 cells. Further, the “SI Caco-2” value with Caco-2 cells worked out at 11.39 ± 0.67. For the same compound, in the series with HepG-2 cells, the “SI HepG-2” value is on record as 10.99 ± 0.65. The MIC was found to be 22.4 ± 0.317 µg/mL (≈ 61.2 µM) in series [2], 43.9 ± 2.04 µg/mL (≈ 120 µM) in series [3] and 58.2 ± 1.21 µg/mL (≈ 159 µM) in series [1].

For the compound `O=C(O)c1cn(C2CC2)c2cc(N3CCNCC3)c(F)cc2c1=O` [Ciprofloxacin, ciprofloxacin, reference compound], in series [3], the “MIC Pseudomonas aeruginosa” value is on record as 18.7 ± 0.475 µg/mL (≈ 56.4 µM) and the lowest concentration to inhibit growth (MIC) was 18.7 µg/mL (≈ 56.4 µM).

What is called MIC is the least concentration at which growth counts as inhibited. In general, inhibition refers to the change of the read-out against control, counted positive when it falls. The low end stands for a response near the control, the high end for a response far below the control. The IC50 is the concentration that gives 50% inhibition. Lower therefore signals inhibition by little substance.
